Reference: patent US3963707A, “Novel N-nitroso compounds, compositions containing such compounds, processes for their preparation and methods of treatment therewith, and novel intermediates” (Aktiebolaget Leo, priority 1973, dated 1976)

Legend:
Hepatoma AH 130 = experiment: in vivo; design: species or system SPF Wistar rats; conditions: additional compounds, result in words
Source text: (§1) The high activity against tumours is further illustrated in these experiments by comparisons with known antitumour agents used in the therapy. The therapeutic indexes (T.I.), i.e. the ratios LD50/ED50, are in all comparisons much more favourable with the compounds of the present invention.
(§2) LD50 is the dose that caused a 50 percent lethality of the animals, ED50 is the dose that caused a 50 percent reduction of tumour size.
(§3) The experimental design and the interpretation of the results have been in accordance with the standards set by the CCNSC (Cancer Chemotherapy Reports, January 1959 and December 1962), and by the DR&D (Cancer Chemotherapy Reports, September 1972, Vol. 3, No. 2).
(§4) The way of administration is by the intraperitoneal route (i.p.) in each case.
Experimental animals: SPF Wistar rats.
Tumour implant: 5 × 10^6 tumour cells i.p.
(§5) Therapy: One injection i.p. on the day following implantation.
(§6) Termination: The animals are killed on the 8th day.
(§7) Evaluation: Weights of tumours of test animals compared with those of control animals.

[1] = tested on: Ehrlich ascites tumour, ELD hyperdiploid (46 chromosomes); experiment: Ehrlich ascites tumour test (LD50, ED50, therapeutic index); type: in vivo, SPF NMRI mice; conditions: additional compounds, result in words
Source text: as §1, §2, §3, §4
Ehrlich ascites tumour, ELD hyperdiploid (46 chromosomes)
Experimental animals: SPF NMRI mice.
Tumour implant: 2 × 10^6 tumour cells i.p.
as §5, §6, §7

Compound | anti-tumor activity (Hepatoma AH 130) | anti-tumor activity [1]
C[C@]12CC[C@@H](OC(=O)N(CCCl)N=O)C[C@@H]1CC[C@@H]1[C@@H]2CC[C@]2(C)[C@@H](O)CC[C@@H]12 [androstanediol-3α-N-(2-chloroethyl)-N-nitroso carbamate] | exhibit anti-tumor activity | exhibit anti-tumor activity
CC(=O)Oc1ccc2c(c1)CC[C@@H]1[C@@H]2CC[C@@]2(C)[C@H]1C[C@@H](OC(C)=O)[C@@H]2OC(=O)N(C(=O)N(CCCl)N=O)C1CCCCC1 [estriol-3,16α-diacetate-17β-/N^2-cyclohexyl-N^4-(2-chloroethyl)-N^4-nitroso allophanate/] | exhibit anti-tumor activity | exhibit anti-tumor activity
C[C@]12CC[C@@H]3c4ccc(OC(=O)N(CCCl)N=O)cc4CC[C@H]3[C@@H]1CC[C@@H]2OC(=O)N(CCCl)N=O [estradiol-3,17β-bis/N-(2-chloroethyl)-N-nitroso carbamate/] | exhibit anti-tumor activity | exhibit anti-tumor activity
C#C[C@]1(OC(C)=O)CC[C@H]2[C@@H]3CCc4cc(OC(=O)N(CCCl)N=O)ccc4[C@H]3CC[C@@]21C [17α-ethynylestradiol-17β-acetate-3-N-(2-chloroethyl)-N-nitroso carbamate] | exhibit anti-tumor activity | exhibit anti-tumor activity
C[C@]12CC[C@H]3[C@@H](CCC4=CC(=O)CC[C@@H]43)[C@@H]1CC[C@@H]2OC(=O)N(C(=O)N(CCCl)N=O)C1CCCCC1 [19-nortestosterone-17β-/N^2-cyclohexyl-N^4-(2-chloroethyl)-N^4-nitroso allophanate/] | exhibit anti-tumor activity | exhibit anti-tumor activity
C[C@]12CC[C@H]3[C@@H](CCC4=CC(=O)CC[C@@]43C)[C@@H]1CC[C@@H]2C(=O)COC(=O)N(CCCl)N=O [deoxycorticosterone-21-N-(2-chloroethyl)-N-nitroso carbamate] | exhibit anti-tumor activity | exhibit anti-tumor activity
C[C@]12CCC(=O)C=C1CC[C@@H]1[C@@H]2[C@@H](O)C[C@@]2(C)[C@H]1CC[C@]2(O)C(=O)COC(=O)N(CCCl)N=O [hydrocortisone-21-N-(2-chloroethyl)-N-nitroso carbamate] | exhibit anti-tumor activity | exhibit anti-tumor activity
C[C@]12CC[C@H](OC(=O)N(C(=O)N(CCCl)N=O)c3ccc(Cl)cc3)CC1=CC[C@@H]1[C@@H]2CC[C@]2(C)C(=O)CC[C@@H]12 [dehydroepiandrosterone-3β-/N^2-(p-chlorophenyl)-N^4-(2-chloroethyl)-N^4-nitroso allophanate/] | exhibit anti-tumor activity | exhibit anti-tumor activity
C[C@]12CC[C@@H]3c4ccc(OC5CCCC5)cc4CC[C@H]3[C@@H]1CC[C@@H]2OC(=O)N(CCCl)N=O [estradiol-17β-N-(2-chloroethyl)-N-nitroso carbamate-3-cyclopentyl ether] | exhibit anti-tumor activity | exhibit anti-tumor activity
C[C@]12CC[C@@H]3c4ccc(OC(=O)N(CCCl)N=O)cc4CC[C@H]3[C@@H]1C[C@@H](OC(=O)CCC(=O)O)[C@@H]2OC(=O)CCC(=O)O [estriol-3-N-(2-chloroethyl)-N-nitroso carbamate-16α,17β-bis-hemisuccinate] | exhibit anti-tumor activity | exhibit anti-tumor activity
CCCOc1ccc(CCC(=O)O[C@H]2CC[C@H]3[C@@H]4CCc5cc(OC(=O)N(CCCl)N=O)ccc5[C@H]4CC[C@]23C)cc1 [estradiol-3-N-(2-chloroethyl)-N-nitroso carbamate-17β-(p-propoxyphenyl-propionate)] | exhibit anti-tumor activity | exhibit anti-tumor activity
CCCCCCC(=O)O[C@H]1CC[C@H]2[C@@H]3CC[C@H]4C[C@H](OC(=O)N(CCCl)N=O)CC[C@]4(C)[C@H]3CC[C@]12C [androstanediol-3α-N-(2-chloroethyl)-N-nitroso carbamate-17β-oenanthate] | exhibit anti-tumor activity | exhibit anti-tumor activity
C#C[C@]1(OC(=O)N(CCCl)C(=O)N(CCCl)N=O)CC[C@H]2[C@@H]3CCC4=CC(=O)CC[C@@H]4[C@H]3CC[C@@]21C [17α-ethynyl-19-nortestosterone-17β-/N^2,N^4-bis (2-chloroethyl)-N^4-nitroso allophanate/] | exhibit anti-tumor activity | exhibit anti-tumor activity
C#C[C@]1(OC(=O)N(CCCl)N=O)CC[C@H]2[C@@H]3CCC4=CC(=O)CC[C@@H]4[C@H]3CC[C@@]21C [17α-ethynyl-19-nortestosterone-17β-N-(2-chloroethyl)-N-nitroso carbamate] | exhibit anti-tumor activity | exhibit anti-tumor activity
CC(=O)Oc1ccc2c(c1)CC[C@@H]1[C@@H]2CC[C@@]2(C)[C@H]1C[C@@H](OC(=O)N(CCCl)N=O)[C@@H]2OC(=O)N(CCCl)N=O [estriol-3-acetate-16α,17β-bis-/N-(2-chloroethyl)-N-nitroso carbamate/] | exhibit anti-tumor activity | exhibit anti-tumor activity
CC(=O)O[C@@H]1C[C@H]2[C@@H]3CCc4cc(OC(=O)N(CCCl)N=O)ccc4[C@H]3CC[C@]2(C)[C@H]1OC(C)=O [estriol-16α,17β-diacetate-3-N-(2-chloroethyl)-N-nitroso carbamate] | exhibit anti-tumor activity | exhibit anti-tumor activity
C#C[C@]1(OC(C)=O)CC[C@H]2[C@@H]3CCc4cc(OC(=O)N(CCCl)C(=O)N(CCCl)N=O)ccc4[C@H]3CC[C@@]21C [17α-ethynylestradiol-17β-acetate-3-/N^2,N^4-bis(2-chloroethyl)-N^4-nitroso allophanate/] | exhibit anti-tumor activity | exhibit anti-tumor activity
C[C@]12CCC(=O)C[C@@H]1CC[C@@H]1[C@@H]2CC[C@]2(C)[C@@H](OC(=O)N(C(=O)N(CCCl)N=O)C3CCCCC3)CC[C@@H]12 [dihydrotestosteron-17β-/N^2-cyclohexyl-N^4-(2-chloroethyl)-N^4-nitroso allophanate/] | exhibit anti-tumor activity | exhibit anti-tumor activity
COc1ccc(N(C(=O)O[C@H]2CC[C@@]3(C)C(=CC[C@@H]4[C@@H]3CC[C@]3(C)C(=O)CC[C@@H]43)C2)C(=O)N(CCCl)N=O)cc1 [dehydroepiandrosterone-3β-/N^2-(p-methoxyphenyl)-N^4-(2-chloroethyl)-N^4-nitroso allophanate/] | exhibit anti-tumor activity | exhibit anti-tumor activity
CC1CCC(N(C(=O)O[C@H]2CC[C@@]3(C)C(=CC[C@@H]4[C@@H]3CC[C@]3(C)C(=O)CC[C@@H]43)C2)C(=O)N(CCCl)N=O)CC1 (stereo partly drawn) [dehydroepiandrosterone-3β-/N^2-(4-methylcyclohexyl)-N^4-(2-chloroethyl)-N^4-nitroso allophanate/] | exhibit anti-tumor activity | –
